How the values were obtained:
MC3T3-E1 cells [1] = assay: ELISA of 25-D3 released to the culture media, coated titanium implants; format: cell-based, mouse; details: Ti implants; 0.2 nmols; 48 h; UV exposure 15 minutes; vs ethanol-treated Ti samples
Protocol: (§1) To test the effect of the surface modification, 96-well plates were used. Ti disks were placed into the wells and treatments and UV-activation were performed over there. Cells grown onto untreated polystyrene tissue culture plastic (TCP) were added as a control for all the experiments. Cells were seeded at a density of 30,000 cells/cm^2 and they were maintained in α-MEM supplemented with 10% FCS and antibiotics. Culture media was collected after 48 hours, to test cytotoxicity and the production of the hydroxylated form of vitamin D, 25-D3. Cells were harvested after two days of culture using Trizol reagent (Roche Diagnostics, Mannheim, Germany), to analyze gene expression of several osteoblast differentiation markers and enzymes involved in vitamin D synthesis using real-time RT-PCR. On the other hand, MC3T3-E1 cells were harvested after 21 days to measure calcium content and ALP activity in the cell monolayer.
25-D3 released to the culture media after 2 days of treatment were analyzed by enzyme-linked immunosorbent assay (ELISA). Aliquots from the culture media were centrifuged at 1800 rpm for 5 minutes at 4° C. and supernatants were used for 25-D3 and determination following instructions described by the manufacturer (Immunodiagnostic Systems Ltd, Boldon, Tyne and Wear, UK).

MC3T3-E1 cells [2] = assay: Calcium content (mineralization, ICP-AES) on coated titanium implants; format: cell-based, mouse; details: Ti implants; 28 days; UV-treated compared to UV-untreated cells and control group
Protocol: as §1, with “On the other hand, MC3T3-E1 cells were harvested after 21 days to measure calcium content and ALP activity in the cell monolayer.” left out
[…] Cell lysates were put into freeze/thaw cycles (liquid nitrogen and 37° C. water bath) to improve protein recovery. […] ALP activity was calculated by measuring the cleavage of p-Nitrophenyl Phosphate (pNPP) (Sigma, St. Louis, Mo., USA) in a soluble yellow end product which absorbs at 405 nm. […] At this point, absorbance was read at 405 nm.
To determine calcium content samples were analyzed by inductively coupled plasma atomic emission spectrometry (Optima 5300 DV, PerkinElmer, Massachussetts, USA). […]

SMILES: CC(C)CCC[C@@H](C)[C@H]1CC[C@H]2C3=CC=C4C[C@@H](O)CC[C@]4(C)[C@H]3CC[C@]12C [7-DHC, 7-dehydrocholesterol]
- 25-D3 secretion to the cell culture media (MC3T3-E1 cells [1]): increased 25-hydroxyvitamin D3 (25-D3) production
- Calcium content (MC3T3-E1 cells [2]): significant increase
